These results are taken from PubChem BioAssay (NCI).

Some test systems named below: PC-3 prostate; SF-539 CNS; SK-MEL-2 melanoma; DU-145 prostate; K-562 leukemia; OVCAR-8 ovarian; CAKI-1 renal; T-47D breast; HCT-15 colon; HL-60(TB) leukemia.
What all share (experiment): NCI anticancer screen, dose series, 48 h

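96-well plates; 48 h exposure; 5 concentrations. Endpoints by linear interpolation between flanking doses. Not reached: highest tested concentration assigned. GI50 is the concentration that inhibits growth by half. TGI marks complete inhibition of growth.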

In the case of `O=C(NCCCCCCCCCCCCNC(=O)Nc1cccc2ccccc12)Nc1cccc2ccccc12`, the TGI in the test with PC-3 prostate amounted to 29.7 µM; in the test on SF-539 CNS it was 27 µM; in the test on SK-MEL-2 melanoma, 35.7 µM; with DU-145 prostate, 70.9 µM; in the test with K-562 leukemia, 50.5 µM; with OVCAR-8 ovarian, 53.6 µM. For the same compound, the TGI in the test on CAKI-1 renal worked out at 31.7 µM; with T-47D breast it was 36.7 µM; in the test with HCT-15 colon it was 36.8 µM; in the test on HL-60(TB) leukemia, 37.3 µM.

As for `CC1CCCC2(CC[N+](C)(CCC[N+](C)(C)C)CC2)C1` (stereo not drawn), the TGI in the test on PC-3 prostate, in the test with SF-539 CNS, in the test on SK-MEL-2 melanoma, in the test on DU-145 prostate, in the test with K-562 leukemia and with OVCAR-8 ovarian was > 100 µM in each case. Moreover, the TGI with CAKI-1 renal is > 100 µM; in the test with T-47D breast, > 100 µM; with HCT-15 colon it was > 100 µM; in the test with HL-60(TB) leukemia, 43.9 µM.

In the case of `COc1cccc(CCN2CCN(CCCc3ccccc3)CC2)c1`, the TGI in the test with PC-3 prostate, in the test on SF-539 CNS, with SK-MEL-2 melanoma, with DU-145 prostate, in the test on K-562 leukemia and in the test on OVCAR-8 ovarian was > 100 µM in each case. For the same compound, the TGI in the test with CAKI-1 renal, in the test on T-47D breast, in the test with HCT-15 colon and in the test with HL-60(TB) leukemia was > 100 µM in each case.

Consider `CCOP(=O)(/C=C\n1cc(C)c(=O)[nH]c1=O)OCC`, for which the TGI in the test with PC-3 prostate, in the test with SF-539 CNS, with SK-MEL-2 melanoma, with DU-145 prostate, in the test with K-562 leukemia and with OVCAR-8 ovarian was > 100 µM each time. For the same compound, the TGI in the test with CAKI-1 renal, in the test with T-47D breast, in the test on HCT-15 colon and in the test with HL-60(TB) leukemia was > 100 µM in each case.

As to `CN(C)c1ccc(/C(F)=C(F)/C(F)=C(F)/C(F)=C(\F)c2ccc(Br)cc2)cc1`, the TGI in the test on PC-3 prostate was > 52 µM; in the test with SF-539 CNS, > 100 µM; in the test with SK-MEL-2 melanoma it was > 100 µM; in the test with DU-145 prostate, > 63.7 µM; in the test on K-562 leukemia it was > 100 µM; in the test on OVCAR-8 ovarian, > 96 µM. The TGI in the test with CAKI-1 renal was > 84 µM; in the test on T-47D breast, > 100 µM; with HCT-15 colon, > 100 µM; in the test with HL-60(TB) leukemia, > 75 µM.

Regarding `CCN(CC)N1C(=O)[N+](CC)(CC)N=C1[O-]`, the TGI in the test with PC-3 prostate, in the test on SF-539 CNS, in the test on SK-MEL-2 melanoma, in the test on DU-145 prostate, with OVCAR-8 ovarian and in the test on CAKI-1 renal was > 100 µM in each case. In addition, the TGI in the test with T-47D breast, in the test with HCT-15 colon and in the test with HL-60(TB) leukemia was > 100 µM throughout.

On to `Cc1ccc(/C(O)=C/c2nc3ccccc3sc2=O)c(C)c1`, for which the TGI with PC-3 prostate, in the test with SF-539 CNS, with SK-MEL-2 melanoma, in the test on DU-145 prostate, in the test with K-562 leukemia and with OVCAR-8 ovarian was > 100 µM throughout. Also, the TGI with CAKI-1 renal was > 100 µM; in the test on T-47D breast, > 100 µM; in the test with HCT-15 colon, > 100 µM; with HL-60(TB) leukemia, 69.6 µM.

In the case of `CC(C)=NN/C(=N\S(=O)(=O)c1ccc(Oc2cccc(Cl)c2C#N)cc1)Nc1ccc(Cl)cc1`, the TGI with PC-3 prostate, in the test on SK-MEL-2 melanoma, in the test with DU-145 prostate, in the test on K-562 leukemia, with OVCAR-8 ovarian and in the test with CAKI-1 renal was > 100 µM throughout. In addition, the TGI in the test with T-47D breast, in the test on HCT-15 colon and in the test with HL-60(TB) leukemia was > 100 µM throughout.

In the case of `CCCC(=O)NC(Nc1ccc(S(=O)(=O)Nc2cc(C)on2)cc1)(C(=O)OCC)C(F)(F)F` (stereo not drawn), the TGI with PC-3 prostate, in the test with SF-539 CNS, in the test on SK-MEL-2 melanoma, in the test with DU-145 prostate, with K-562 leukemia and with OVCAR-8 ovarian was > 100 µM throughout. The TGI in the test on CAKI-1 renal, in the test with T-47D breast, in the test with HCT-15 colon and in the test with HL-60(TB) leukemia was > 100 µM throughout.

For `Cc1cc(S(=O)(=O)N/C(=C(\C#N)C(=O)c2ccc(Cl)cc2)[n+]2ccc(N(C)C)cc2)c([S-])cc1Cl`, the TGI in the test on PC-3 prostate is > 100 µM; in the test on SF-539 CNS, > 100 µM; in the test with SK-MEL-2 melanoma it was 83.4 µM; with DU-145 prostate, > 100 µM; in the test on K-562 leukemia it was > 100 µM; in the test on OVCAR-8 ovarian, > 100 µM. For the same compound, the TGI in the test on CAKI-1 renal, with T-47D breast, in the test on HCT-15 colon and in the test on HL-60(TB) leukemia was > 100 µM each time.

In the case of `CO/N=C1\CC(NC(=O)CNC(=O)OC(C)(C)C)c2ccsc21` (stereo not drawn), the TGI in the test with PC-3 prostate, in the test with SF-539 CNS, in the test with SK-MEL-2 melanoma, in the test with DU-145 prostate, with OVCAR-8 ovarian and in the test with CAKI-1 renal was > 100 µM throughout. In addition, the TGI in the test on T-47D breast, in the test on HCT-15 colon and in the test with HL-60(TB) leukemia was > 100 µM throughout.

`Cc1ccc2c(=O)cc(-c3ccc(Cl)s3)[nH]c2n1`: the TGI was > 100 µM in the test on PC-3 prostate; 3.93 µM with SF-539 CNS; > 100 µM in the test with SK-MEL-2 melanoma; > 100 µM in the test on DU-145 prostate; > 100 µM with K-562 leukemia; > 53.8 µM in the test with OVCAR-8 ovarian. Besides, the TGI in the test on CAKI-1 renal is > 100 µM; in the test on T-47D breast, > 100 µM; in the test with HCT-15 colon, > 100 µM; with HL-60(TB) leukemia, 0.989 µM.

Turning to `NS(=O)(=O)c1ccc(/C=C/c2ccc(F)cc2)cc1`, the TGI in the test with PC-3 prostate is > 100 µM; in the test with SF-539 CNS, 96.1 µM; with SK-MEL-2 melanoma, 86.7 µM; in the test with DU-145 prostate, > 100 µM; in the test with K-562 leukemia, > 100 µM; in the test on OVCAR-8 ovarian, 30 µM. The TGI with CAKI-1 renal is > 100 µM; in the test on T-47D breast, 57.6 µM; in the test with HCT-15 colon, 33.3 µM; with HL-60(TB) leukemia, > 100 µM. The GI50 with SF-539 CNS is 29.1 µM; in the test with K-562 leukemia it was 14.9 µM; with OVCAR-8 ovarian, 15.2 µM; with CAKI-1 renal, 36.3 µM; in the test with HCT-15 colon, 9.97 µM; in the test on HL-60(TB) leukemia, 37.3 µM.
